This is an account of results in US20200354426A1 (MEDIMMUNE LIMITED, priority 2016, published 2020).

Where two headings read alike, the source gives them in different places. Numbered stars: 1 amine (or outer) side, 2 acyl side, 3 side chain; on linkers, the order of the positions; unused ones are H or OH. Side chains are listed from the residue outwards. Peptide text beside a SMILES is read from it. * marks the point of attachment. γGlu = O=C(O)[C@H](CCC(=O)[*:2])N[*:1]; Palmitoyl = CCCCCCCCCCCCCCCC(=O)*; Ahx = NCCCCCC(=O)O; βAla = NCCC(=O)O

What all share (test): cAMP activity assay in assay medium (assay 1)
Holding throughout (type): cell-based
Holding throughout (details): Table 4

One experiment addresses T1, Human GIPr (Homo sapiens, UniProt P48546).
T1 construct: expressed in transfected cells
T1 sequence (P48546 22-466): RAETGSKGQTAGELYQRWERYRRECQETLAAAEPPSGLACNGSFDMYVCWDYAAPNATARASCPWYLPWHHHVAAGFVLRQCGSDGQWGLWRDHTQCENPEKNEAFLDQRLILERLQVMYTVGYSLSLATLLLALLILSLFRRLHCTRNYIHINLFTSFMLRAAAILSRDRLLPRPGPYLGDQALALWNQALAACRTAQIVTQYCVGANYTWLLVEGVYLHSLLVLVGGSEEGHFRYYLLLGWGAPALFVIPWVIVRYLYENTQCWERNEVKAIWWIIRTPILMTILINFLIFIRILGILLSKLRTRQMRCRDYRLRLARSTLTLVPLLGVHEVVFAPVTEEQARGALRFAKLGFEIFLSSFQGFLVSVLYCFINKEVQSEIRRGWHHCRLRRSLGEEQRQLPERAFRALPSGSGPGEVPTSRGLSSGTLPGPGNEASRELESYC
The text has this: (§1) Biological Activity of Peptides in Cell-Based cAMP Activity Assay (Assay 1):
(§2) All sample dilutions were made in duplicate.

For another experiment, the target named is T2, Human GlucR (Homo sapiens, UniProt P47871).
T2 construct: expressed in transfected cells
Source text: as §1, §2

The target of a further experiment is Human GLP1R (Homo sapiens, UniProt P43220). Further details: expressed in transfected cells.
Source text: as §1, §2

The mark [1] stands for this setting: assay medium, read-out: hGIPR EC50.
Setting [2] is: assay medium, read-out: hGlucR EC50.
Setting [3] is: assay medium, read-out: hGLP1R EC50.

T2 sequence (P47871 26-477): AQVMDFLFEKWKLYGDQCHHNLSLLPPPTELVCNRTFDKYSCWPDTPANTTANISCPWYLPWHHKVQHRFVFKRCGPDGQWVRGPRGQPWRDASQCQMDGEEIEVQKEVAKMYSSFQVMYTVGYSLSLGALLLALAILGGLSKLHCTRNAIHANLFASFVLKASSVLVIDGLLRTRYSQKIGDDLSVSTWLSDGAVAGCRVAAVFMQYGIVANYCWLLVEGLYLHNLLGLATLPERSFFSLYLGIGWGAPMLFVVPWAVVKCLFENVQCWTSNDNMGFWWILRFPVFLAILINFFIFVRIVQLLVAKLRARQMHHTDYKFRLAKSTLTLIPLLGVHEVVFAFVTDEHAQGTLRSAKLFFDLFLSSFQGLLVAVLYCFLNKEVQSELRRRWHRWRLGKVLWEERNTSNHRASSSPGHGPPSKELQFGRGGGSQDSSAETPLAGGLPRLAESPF
Chain of Human GLP1R (P43220 24-463): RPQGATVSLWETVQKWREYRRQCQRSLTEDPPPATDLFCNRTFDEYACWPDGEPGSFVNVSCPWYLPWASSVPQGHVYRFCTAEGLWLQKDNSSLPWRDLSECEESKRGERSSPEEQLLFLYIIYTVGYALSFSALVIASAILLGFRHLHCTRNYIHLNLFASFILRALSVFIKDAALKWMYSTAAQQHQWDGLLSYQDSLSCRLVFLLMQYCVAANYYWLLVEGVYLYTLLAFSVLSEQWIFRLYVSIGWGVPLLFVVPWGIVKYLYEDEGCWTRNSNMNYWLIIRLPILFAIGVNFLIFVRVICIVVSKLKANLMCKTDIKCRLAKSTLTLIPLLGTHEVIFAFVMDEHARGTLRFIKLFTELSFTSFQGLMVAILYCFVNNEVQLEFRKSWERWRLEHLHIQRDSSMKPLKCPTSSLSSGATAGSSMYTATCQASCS

For the compound `CCCCCCCCCCCCCCCC(=O)NCCCCCC(=O)NCCCC[C@H](NC(=O)[C@H](CO)NC(=O)[C@H](CC(=O)O)NC(=O)[C@H](CC(C)C)NC(=O)[C@H](Cc1ccc(O)cc1)NC(=O)[C@H](CCC(=O)O)NC(=O)[C@H](CO)NC(=O)[C@H](Cc1ccc(O)cc1)NC(=O)[C@H](CC(=O)O)NC(=O)[C@H](CO)NC(=O)[C@@H](NC(=O)[C@H](Cc1ccccc1)NC(=O)[C@@H](NC(=O)CNC(=O)[C@H](CCC(N)=O)NC(=O)CNC(=O)[C@@H](N)Cc1c[nH]cn1)[C@@H](C)O)[C@@H](C)O)C(=O)N[C@@H](CCCNC(=N)N)C(=O)N[C@@H](C)C(=O)N[C@@H](CCCNC(=N)N)C(=O)N[C@@H](CC(=O)O)C(=O)N[C@@H](Cc1ccccc1)C(=O)N[C@H](C(=O)N[C@@H](C)C(=O)N[C@@H](Cc1c[nH]c2ccccc12)C(=O)N[C@@H](CC(C)C)C(=O)N[C@@H](CCC(=O)O)C(=O)N[C@@H](CCCNC(=N)N)C(=O)NCC(=O)NCC(=O)O)C(C)C` [g727] (H-HGQGTFTSDYSEYLDSK([Ahx-Palmitoyl])RARDFVAWLERGG-OH; N-terminus assumed), the EC50 at Human GIPr (setting [1]) came out at 177 nM; at Human GlucR (setting [2]), 0.218 nM; at Human GLP1R (setting [3]), 0.0263 nM.
With `CCCCCCCCCCCCCCCC(=O)N[C@@H](CCC(=O)NCCCC[C@H](NC(=O)[C@H](CO)NC(=O)[C@H](Cc1ccc(O)cc1)NC(=O)[C@H](CC(=O)O)NC(=O)[C@H](CO)NC(=O)[C@@H](NC(=O)[C@H](Cc1ccccc1)NC(=O)[C@@H](NC(=O)CNC(=O)[C@H](CCC(N)=O)NC(=O)[C@H](CO)NC(=O)[C@@H](N)Cc1c[nH]cn1)[C@@H](C)O)[C@@H](C)O)C(=O)N[C@@H](Cc1ccc(O)cc1)C(=O)N[C@@H](CC(C)C)C(=O)N[C@@H](CC(=O)O)C(=O)N[C@@H](CO)C(=O)N[C@@H](CCC(=O)O)C(=O)N[C@@H](CCCNC(=N)N)C(=O)N[C@@H](C)C(=O)N[C@@H](CCCNC(=N)N)C(=O)N[C@@H](CC(=O)O)C(=O)N[C@@H](Cc1ccccc1)C(=O)N[C@H](C(=O)N[C@@H](C)C(=O)N[C@@H](Cc1c[nH]c2ccccc12)C(=O)N[C@@H](CC(C)C)C(=O)N[C@H](C(=O)N[C@@H](C)C(=O)NCC(=O)NCC(N)=O)C(C)C)C(C)C)C(=O)O` [g728] (H-HSQGTFTSDYSK([γGlu-Palmitoyl])YLDSERARDFVAWLVAGG-NH2; N-terminus assumed), the concentration giving a half-maximal response (EC50) came out at 395 nM at Human GIPr (setting [1]), 2.44 nM on Human GlucR (setting [2]) and 0.169 nM at Human GLP1R (setting [3]).
`CCCCCCCCCCCCCCCC(=O)N[C@@H](CCC(=O)NCCCC[C@H](NC(=O)[C@H](CCCCN)NC(=O)[C@H](CO)NC(=O)[C@H](Cc1ccc(O)cc1)NC(=O)[C@H](CC(=O)O)NC(=O)[C@H](CO)NC(=O)[C@@H](NC(=O)[C@H](Cc1ccccc1)NC(=O)[C@@H](NC(=O)CNC(=O)[C@H](CCC(N)=O)NC(=O)[C@H](CO)NC(=O)[C@@H](N)Cc1c[nH]cn1)[C@@H](C)O)[C@@H](C)O)C(=O)N[C@@H](CC(C)C)C(=O)N[C@@H](CC(=O)O)C(=O)N[C@@H](CO)C(=O)N[C@@H](CCC(=O)O)C(=O)N[C@@H](CCCNC(=N)N)C(=O)N[C@@H](C)C(=O)N[C@@H](CCC(N)=O)C(=O)N[C@@H](CC(=O)O)C(=O)N[C@@H](Cc1ccccc1)C(=O)N[C@H](C(=O)N[C@@H](CCC(N)=O)C(=O)N[C@@H](Cc1c[nH]c2ccccc12)C(=O)N[C@@H](CC(C)C)C(=O)N[C@H](C(=O)N[C@@H](C)C(=O)NCC(=O)NCC(N)=O)C(C)C)C(C)C)C(=O)O` [g729] (H-HSQGTFTSDYSKK([γGlu-Palmitoyl])LDSERAQDFVQWLVAGG-NH2): the EC50 at Human GIPr (hGIPR EC50, assay medium) was 209 nM; on Human GlucR (hGlucR EC50, assay medium), 0.0319 nM; at Human GLP1R (hGLP1R EC50, assay medium), 0.0729 nM.
As for `CCCCCCCCCCCCCCCC(=O)N[C@@H](CCC(=O)NCCCC[C@H](NC(=O)[C@H](Cc1ccc(O)cc1)NC(=O)[C@H](CCC(=O)O)NC(=O)[C@H](CO)NC(=O)[C@H](Cc1ccc(O)cc1)NC(=O)[C@H](CC(=O)O)NC(=O)[C@H](CO)NC(=O)[C@@H](NC(=O)[C@H](Cc1ccccc1)NC(=O)[C@@H](NC(=O)CNC(=O)[C@H](CCC(N)=O)NC(=O)[C@H](CO)NC(=O)[C@@H](N)Cc1c[nH]cn1)[C@@H](C)O)[C@@H](C)O)C(=O)N[C@@H](CC(=O)O)C(=O)N[C@@H](CO)C(=O)N[C@@H](CCCNC(=N)N)C(=O)N[C@@H](CCCNC(=N)N)C(=O)N[C@@H](C)C(=O)N[C@@H](CCC(N)=O)C(=O)N[C@@H](CC(=O)O)C(=O)N[C@@H](Cc1ccccc1)C(=O)N[C@H](C(=O)N[C@@H](CCC(N)=O)C(=O)N[C@@H](Cc1c[nH]c2ccccc12)C(=O)N[C@@H](CC(C)C)C(=O)N[C@H](C(=O)N[C@@H](C)C(=O)NCC(=O)NCC(N)=O)C(C)C)C(C)C)C(=O)O` [g731] (H-HSQGTFTSDYSEYK([γGlu-Palmitoyl])DSRRAQDFVQWLVAGG-NH2; N-terminus assumed), the EC50 worked out at 40.7 nM on Human GIPr (setting [1]), 0.0277 nM at Human GlucR (setting [2]) and 0.0422 nM on Human GLP1R (setting [3]).
With `CCCCCCCCCCCCCCCC(=O)N[C@@H](CCC(=O)NCCCC[C@H](NC(=O)[C@H](Cc1ccc(O)cc1)NC(=O)[C@H](CCCCN)NC(=O)[C@H](CO)NC(=O)[C@H](Cc1ccc(O)cc1)NC(=O)[C@H](CC(=O)O)NC(=O)[C@H](CO)NC(=O)[C@@H](NC(=O)[C@H](Cc1ccccc1)NC(=O)[C@@H](NC(=O)CNC(=O)[C@H](CCC(N)=O)NC(=O)CNC(=O)[C@@H](N)Cc1c[nH]cn1)[C@@H](C)O)[C@@H](C)O)C(=O)N[C@@H](CC(=O)O)C(=O)N[C@@H](CO)C(=O)N[C@@H](CCC(=O)O)C(=O)N[C@@H](CCCNC(=N)N)C(=O)N[C@@H](C)C(=O)N[C@@H](CCCNC(=N)N)C(=O)N[C@@H](CC(=O)O)C(=O)N[C@@H](Cc1ccccc1)C(=O)N[C@H](C(=O)N[C@@H](C)C(=O)N[C@@H](Cc1c[nH]c2ccccc12)C(=O)N[C@@H](CC(C)C)C(=O)N[C@H](C(=O)N[C@@H](C)C(=O)NCC(=O)NCC(N)=O)C(C)C)C(C)C)C(=O)O` [g732] (H-HGQGTFTSDYSKYK([γGlu-Palmitoyl])DSERARDFVAWLVAGG-NH2; N-terminus assumed), the EC50 on Human GIPr (setting [1]) stood at 29.4 nM; at Human GlucR (setting [2]), 0.0396 nM; on Human GLP1R (setting [3]), 0.0232 nM.
Take `CCCCCCCCCCCCCCCC(=O)N[C@@H](CCC(=O)NCCCC[C@H](NC(=O)[C@H](Cc1ccc(O)cc1)NC(=O)[C@H](CCCCN)NC(=O)[C@H](CO)NC(=O)[C@H](Cc1ccc(O)cc1)NC(=O)[C@H](CC(=O)O)NC(=O)[C@H](CO)NC(=O)[C@@H](NC(=O)[C@H](Cc1ccccc1)NC(=O)[C@@H](NC(=O)CNC(=O)[C@H](CCC(=O)O)NC(=O)CNC(=O)[C@@H](N)Cc1c[nH]cn1)[C@@H](C)O)[C@@H](C)O)C(=O)N[C@@H](CC(=O)O)C(=O)N[C@@H](CO)C(=O)N[C@@H](CCCNC(=N)N)C(=O)N[C@@H](CCCNC(=N)N)C(=O)N[C@@H](C)C(=O)N[C@@H](CCC(N)=O)C(=O)N[C@@H](CC(=O)O)C(=O)N[C@@H](Cc1ccccc1)C(=O)N[C@H](C(=O)N[C@@H](CCC(N)=O)C(=O)N[C@@H](Cc1c[nH]c2ccccc12)C(=O)N[C@@H](CC(C)C)C(=O)N[C@H](C(=O)N[C@@H](C)C(=O)NCC(=O)NCC(N)=O)C(C)C)C(C)C)C(=O)O` [g733] (H-HGEGTFTSDYSKYK([γGlu-Palmitoyl])DSRRAQDFVQWLVAGG-NH2): the EC50 is 817 nM at Human GIPr (hGIPR EC50, assay medium); 62 nM at Human GlucR (hGlucR EC50, assay medium); 0.0231 nM on Human GLP1R (hGLP1R EC50, assay medium).
Consider `CCCCCCCCCCCCCCCC(=O)NCCC(=O)NCCCC[C@H](NC(=O)[C@H](CO)NC(=O)[C@H](CC(=O)O)NC(=O)[C@H](CC(C)C)NC(=O)[C@H](Cc1ccc(O)cc1)NC(=O)[C@H](CCC(=O)O)NC(=O)[C@H](CO)NC(=O)[C@H](Cc1ccc(O)cc1)NC(=O)[C@H](CC(=O)O)NC(=O)[C@H](CO)NC(=O)[C@@H](NC(=O)[C@H](Cc1ccccc1)NC(=O)[C@@H](NC(=O)CNC(=O)[C@H](CCC(=O)O)NC(=O)[C@H](CO)NC(=O)[C@@H](N)Cc1c[nH]cn1)[C@@H](C)O)[C@@H](C)O)C(=O)N[C@@H](CCCNC(=N)N)C(=O)N[C@@H](C)C(=O)N[C@@H](CCCNC(=N)N)C(=O)N[C@@H](CC(=O)O)C(=O)N[C@@H](Cc1ccccc1)C(=O)N[C@H](C(=O)N[C@@H](C)C(=O)N[C@@H](Cc1c[nH]c2ccccc12)C(=O)N[C@@H](CC(C)C)C(=O)N[C@@H](CCC(=O)O)C(=O)N[C@@H](C)C(=O)NCC(=O)NCC(N)=O)C(C)C` [g734] (H-HSEGTFTSDYSEYLDSK([βAla-Palmitoyl])RARDFVAWLEAGG-NH2; N-terminus assumed), for which the EC50 was determined as 1170 nM at Human GIPr (setting [1]), 82.8 nM at Human GlucR (setting [2]) and 0.0695 nM at Human GLP1R (setting [3]).
The matching figures for `CCCCCCCCCCCCCCCC(=O)N[C@@H](CCC(=O)NCCCC[C@H](NC(=O)CNC(=O)CNC(=O)[C@H](C)NC(=O)[C@H](CCC(=O)O)NC(=O)[C@H](CC(C)C)NC(=O)[C@H](Cc1c[nH]c2ccccc12)NC(=O)[C@H](CCC(N)=O)NC(=O)[C@@H](NC(=O)[C@H](Cc1ccccc1)NC(=O)[C@H](CC(=O)O)NC(=O)[C@H](CCC(N)=O)NC(=O)[C@H](C)NC(=O)[C@H](CCCNC(=N)N)NC(=O)[C@H](CCCNC(=N)N)NC(=O)[C@H](CO)NC(=O)[C@H](CC(=O)O)NC(=O)[C@H](CC(C)C)NC(=O)[C@H](Cc1ccc(O)cc1)NC(=O)[C@H](CCCCN)NC(=O)[C@H](CO)NC(=O)[C@H](Cc1ccc(O)cc1)NC(=O)[C@H](CC(=O)O)NC(=O)[C@H](CO)NC(=O)[C@@H](NC(=O)[C@H](Cc1ccccc1)NC(=O)[C@@H](NC(=O)CNC(=O)[C@H](CCC(N)=O)NC(=O)[C@H](CO)NC(=O)[C@@H](N)Cc1c[nH]cn1)[C@@H](C)O)[C@@H](C)O)C(C)C)C(N)=O)C(=O)O` [g747]: 1040 nM, 0.0942 nM and 3.16 nM.
